Laboratory results as given in patent publication US20040023919A1, “Blood lipid ameliorant composition” (SANKYO COMPANY, LIMITED, priority 2000, published 2004).

Columns and labels:
Type in all cases: in vivo, Beagle dogs
[1] = test system: total cholesterol in the blood; test: Blood total cholesterol levels in dogs after oral administration for 11 days (CEH-COD-POD method); details: relative ratio against averaged pre-dosing level (100), oral once daily, mean of 5 animals
Text: (§1) Atorvastatin was synthesized at Chemtech Labo.
(§2) Beagle dogs aged 5 months were purchased from Covance Research Products Inc. and used after 1 month of quarantine and acclimatisation breeding.
(§3) The required amounts of atorvastatin or each component of the combination drug calculated from the body weight of each dog were weighed and filled in a gelatin capsule (½ ounce) purchased from TORPAC Inc. Capsules filled with atorvastatin were stocked in a refrigerator and those filled with combination drugs stocked at room temperature until use.
(§4) Atorvastatin or combination drug capsules were forcibly orally administered to each of the test animals once daily between 9:00 and 12:30. Animals were fasted for 2 or 3 hr prior to administration of the capsules.
(§5) The administration period was 11 successive days.
(§6) Blood (10 mL) was collected from the superficial radial vein 2 or 1 weeks prior to administration and 4, 8, and 12 days after administration was started. Animals were fasted for approximately 18 hr prior to blood collection. Collected blood was placed in a test tube, left at room temperature for 0.5-1 hr, then centrifuged (3,000 rpm for 10 min). The obtained serum was used for assays of blood levels of total cholesterol, lipid peroxides and triglycerides according to CEH-COD-POD (Cholesterol ester hydrolase-Cholesteroloxidase-Peroxidase) methods, Yagi's methods and GK-GPO-POD (Glycerokinase-Glycerolphosphateoxidase-Peroxidase) methods respectively. (For assay method, see: Kanai's Manual of Clinical Laboratory Medicine; 31st Edition (September 1998), Kanehara & Co., Ltd.).
(§7) All these levels were determined using a fluorometer (Hitachi, Ltd., F3000), a full automatic analyzer (Monarch, Instrumentation Laboratory), and an automatic analyzer (7170, Hitachi, Ltd.).
(§8) All these values were converted to their relative ratios against their averaged pre-dosing levels (100) determined 2 and 1 weeks prior to drug administration. The averaged value in each group was obtained from 5 animals per group.

[2] = test system: lipid peroxides in the blood; test: Blood lipid peroxide levels in dogs after oral administration for 11 days (Yagi's method); details: relative ratio against averaged pre-dosing level (100), oral once daily, atorvastatin 2 mg/kg, mean of 5 animals
Text: as §1, §2, §3, §4, §5
as §6, with “respectively.” for “respectively. (For assay method, see: Kanai's Manual of Clinical Laboratory Medicine; 31st Edition (September 1998), Kanehara & Co., Ltd.).”
as §8

[3] = test system: triglycerides in the blood; test: Blood triglyceride levels in dogs after oral administration for 11 days (GK-GPO-POD method); details: relative ratio against averaged pre-dosing level (100), oral once daily, statin 2 mg/kg, taurine 1000 mg/kg, mean of 5 animals
Text: as §1, §2, §3, §4, §5, §6, §7, §8

Blood FFA = Blood FFA levels in dogs after oral administration (Table 8); details: relative ratio against averaged pre-dosing level (100), oral once daily, atorvastatin 2 mg/kg, AA 500 mg/kg, mean of 5 animals
GOT = GOT levels in dogs after oral administration (Table 9); details: relative ratio against averaged pre-dosing level (100), oral once daily, atorvastatin 2 mg/kg, pantethine 300 mg/kg, mean of 5 animals
Text: Atorvastatin was synthesized at Chemtech Labo. Inc., and riboflavin butyrate, d-α-tocopherol acetate, ascorbic acid, pantethine and taurine were purchased from Mitsubishi-Tokyo Pharmaceutical Inc., Eisai Co., Ltd., NIPPON ROCHE K.K., Nacalai Tesque, Inc. and Dai-ich Pharmaceutical Co., Ltd., respectively.
as §2, §3, §4, §5
Blood (10 mL) was collected from the superficial radial vein 2 or 1 weeks prior to administration and 4, 8, and 12 days after administration was started. Animals were fasted for approximately 18 hr prior to blood collection. Collected blood was placed in a test tube, left at room temperature for 0.5-1 hr, then centrifuged (3,000 rpm for 10 min). […]
as §7
Total cholesterol levels and so forth in the blood collected from dogs treated with either atorvastatin alone or a combination drug consisting of atorvastatin plus one of riboflavin butyrate, d-α-tocopherol acetate, ascorbic acid, pantethine and taurine were determined. All these values were converted to their relative ratios against their averaged pre-dosing levels (100) determined 2 and 1 weeks prior to drug administration. […]

[4] = atorvastatin 2 mg/kg, Tocoph 300 mg/kg
[5] = statin 2 mg/kg, taurine 1000 mg/kg
[6] = atorvastatin 2 mg/kg, RFVb 200 mg/kg

Compound | Blood Total Cholesterol Levels after administration, 4 days [1, 4] | Blood Total Cholesterol Levels after administration, 8 days [1, 4] | Blood Total Cholesterol Levels after administration, 12 days [1, 4] | Blood Lipid Peroxide Levels after administration, 4 days ([2]; Tocoph 300 mg/kg) | Blood Lipid Peroxide Levels after administration, 8 days ([2]; Tocoph 300 mg/kg) | Blood Lipid Peroxide Levels after administration, 12 days ([2]; Tocoph 300 mg/kg) | Blood FFA Levels after administration, 4 days (Blood FFA) | Blood FFA Levels after administration, 8 days (Blood FFA) | Blood FFA Levels after administration, 12 days (Blood FFA) | Blood Total Cholesterol Levels after administration, 4 days [1, 6] | Blood Total Cholesterol Levels after administration, 8 days [1, 6] | Blood Total Cholesterol Levels after administration, 12 days [1, 6] | other results
CC(=O)Oc1c(C)c(C)c2c(c1C)CC[C@@](C)(CCC[C@H](C)CCC[C@H](C)CCCC(C)C)O2 [Tocoph alone, d-α-tocopherol acetate] | 97.7 | 95.1 | 97.5 | 106.3 | 119.0 | 75.9 |  |  |  |  |  |  | 
CCC(C)(C)C(=O)O[C@H]1C[C@@H](C)C=C2C=C[C@H](C)[C@H](CC[C@@H]3C[C@@H](O)CC(=O)O3)[C@H]21 [Simvastatin alone] |  |  |  |  |  |  |  |  |  |  |  |  | Blood Total Cholesterol Levels after administration, 4 days [1, 5]: 102.9; Blood Total Cholesterol Levels after administration, 8 days [1, 5]: 95.5; Blood Total Cholesterol Levels after administration, 12 days [1, 5]: 90.9; Blood Triglyceride Levels after administration, 4 days ([3]; 4 days): 87.1; Blood Triglyceride Levels after administration, 8 days ([3]; 8 days): 86.7; Blood Triglyceride Levels after administration, 12 days ([3]; 12 days): 74.1
O=C1O[C@H]([C@@H](O)CO)C(O)=C1O [AA alone, ascorbic acid] |  |  |  |  |  |  | 95.9 | 96.7 | 98.9 |  |  |  | 
CC(C)c1c(C(=O)Nc2ccccc2)c(-c2ccccc2)c(-c2ccc(F)cc2)n1CC[C@@H](O)C[C@@H](O)CC(=O)O (relative stereo) [Atorvastatin alone, [R-(R*,R*)]-2-(4-fluorophenyl)-β,δ-dihydroxy-5-(1-methylethyl)-3-phenyl-4-[phenylamino]carbonyl]-1H-pyrrole-1-heptanoic acid] | 102.9 | 95.5 | 90.9 | 104.5 | 84.4 | 80.9 | 102.9 | 95.5 | 90.9 | 102.9 | 95.5 | 90.9 | GOT Levels after administration, 4 days (GOT; 4 days): 102.9; GOT Levels after administration, 8 days (GOT; 8 days): 95.5; GOT Levels after administration, 12 days (GOT; 12 days): 90.9; Blood Lipid Peroxide Levels after administration, 4 days ([2]; pantethine 300 mg/kg): 104.5; Blood Lipid Peroxide Levels after administration, 8 days ([2]; pantethine 300 mg/kg): 84.4; Blood Lipid Peroxide Levels after administration, 12 days ([2]; pantethine 300 mg/kg): 80.9
CCCC(=O)OC[C@@H](OC(=O)CCC)[C@@H](OC(=O)CCC)[C@H](Cn1c2nc(=O)[nH]c(=O)c-2nc2cc(C)c(C)cc21)OC(=O)CCC [RFVb alone, riboflavin butyrate] |  |  |  |  |  |  |  |  |  | 99.5 | 99.0 | 97.2 | 
